Source: patent US7557136B2, “Pyrrolidine derivatives as oxytocin antagonists” (Laboratoires Serono SA, priority 2003, dated 2009)

Molecular target: T1, human Oxytocin (hOT) receptor (Homo sapiens, UniProt P30559)
T1 construct: expressed in transfected cells; host or cells: HEK293EBNA (membranes)
T1 sequence (P30559 1-389): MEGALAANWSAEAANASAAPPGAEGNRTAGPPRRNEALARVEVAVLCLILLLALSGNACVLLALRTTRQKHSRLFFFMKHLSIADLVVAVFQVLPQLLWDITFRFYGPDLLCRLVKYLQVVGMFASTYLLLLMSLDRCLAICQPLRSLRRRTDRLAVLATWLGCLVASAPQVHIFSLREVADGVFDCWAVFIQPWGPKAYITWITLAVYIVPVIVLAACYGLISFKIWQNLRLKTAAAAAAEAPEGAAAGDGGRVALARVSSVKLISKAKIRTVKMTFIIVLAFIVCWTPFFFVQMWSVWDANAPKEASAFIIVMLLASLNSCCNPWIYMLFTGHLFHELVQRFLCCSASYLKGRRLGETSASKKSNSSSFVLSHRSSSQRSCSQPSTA
Experiment: In vitro competition binding assay on hOT receptor with scintillation proximity assay ([125I]-OVTA)
Details: membranes from HEK293EBNA cells expressing the hOT receptor; 0.2 nM [125I]-OVTA; SPA; read-out: Binding Affinity hOT-R (Ki [nM])
Protocol: The compounds according to formula (I) may be subjected to the following assays: • a) In Vitro Competition Binding Assay on hOT Receptor with Scintillation Proximity Assay (11).
This assay allows to determine the affinity of the test compounds for the human Oxytocin (hOT) receptor. Membranes from HEK293EBNA (cells expressing the hOT receptor) were suspended in buffer containing 50 mM Tris-HCl, pH 7.4, 5 mM MgCl2 and 0.1% BSA (w/v). The membranes (2-4 μg) were mixed with 0.1 mg SPA bead coated with wheat-germ aglutinin (WGA-PVT-Polyethylene Imine beads from Amersham) and 0.2 nM of the radiolabelled [^125I]-OVTA (OVTA being Ornithin Vasoactive, an analogue of OT for competitive binding experiments). Non-specific binding was determined in the presence of 1 μM Oxytocin. The total assay volume was 100 μl. The plates (Corning® NBS plate) were incubated at room temperature for 30 min and counted on a Mibrobeta® plate scintillation counter. Competitive binding was performed in presence of compounds of formula (I) at the following concentrations: 30 μM, 10 μM, 1 μM, 300 nM, 100 nM, 10 nM, 1 nM, 100 pM, 10 pM. The competitive binding data were analysed using the iterative, nonlinear, curve-fitting program, “Prism” (GraphPad Software, Inc).
The ability of pyrrolidine derivatives of formula (I) to inhibit the binding of ^125I-OVTA to the OT-receptor was assessed using the above described in vitro biological assay. Representative values for some example compounds are given in Table I where the binding affinity of test compounds from the above examples is expressed by the inhibition constant (Ki; nM). From these values, it can be derived that said test compounds according to formula (I) do show a significant binding to the oxytocin receptor.

| Structure (SMILES) | Ki [nM] |
| --- | --- |
| CON=C1CC(CCC(=O)OC)N(C(=O)c2ccc(-c3ccccc3)cc2)C1 [Example 2, methyl 3-[(2R,4EZ)-1-biphenyl-4-ylcarbonyl)-4-(methoxyimino)pyrrolidin-2-yl]propanoate] | 144 |
| CON=C1C[C@@H](CCC(=O)NC[C@@H](O)c2ccccc2)N(C(=O)c2ccc(-c3ccccc3)cc2)C1 [Example 6, 3-[(2R,4EZ)-1-(biphenyl-4-ylcarbonyl)-4-(methoxyimino)pyrrolidin-2-yl]-N-[(2S)-2-hydroxy-2-phenylethyl]propanamide] | 77 |
| CON=C1CC(CC(=O)N2CCOCC2)N(C(=O)c2ccc(-c3ccccc3)cc2)C1 [Example 9, (3EZ,5S)-1-(biphenyl-4-ylcarbonyl-5-(2-morpholin-4yl-2-oxoethyl)pyrrolidin-3-one O-methyloxime] | 142 |

Stronger by Ki, values ahead:

| Ki [nM] | Structure (SMILES) |
| --- | --- |
| 67 | CON=C1CC(CC(=O)NC[C@H](O)c2ccccc2)N(C(=O)c2ccc(-c3ccccc3)cc2)C1 (stereo partly drawn) [Example 5] |
| 46 | CON=C1C[C@@H](CC(=O)OC2CCCC2)N(C(=O)c2ccc(-c3ccccc3)cc2)C1 [Example 3, cyclopentyl [(2S,4EZ)-1-(biphenyl-4-ylcarbonyl)-4-(methoxyimino)pyrrolidin-2-yl]acetate] |
| 37 | CON=C1C[C@@H](CC(=O)OC)N(C(=O)c2ccc(-c3ccccc3)cc2)C1 [Example 1, methyl [(2S,4EZ)-1-(biphenyl-4-ylcarbonyl)-4-(methoxyimino)pyrrolidin-2-yl]acetate] |
